Reference: US6376675B2, “Muscarinic receptor agonists” (The University of Toledo, priority 1999, dated 2002)
Counter-ions that a name gives are not always drawn.

How the values were obtained:
[1] = molecular target: T1, M1 muscarinic receptors (Homo sapiens, UniProt P11229); test: Muscarinic receptor binding at M1 receptors; conditions: for Ki: Table 3; for affinity for muscarinic receptors: as compared to the parent compound xanomeline
T1 construct: expressed in transfected cells; host or cells: A9 L cells
T1 sequence (P11229 1-460): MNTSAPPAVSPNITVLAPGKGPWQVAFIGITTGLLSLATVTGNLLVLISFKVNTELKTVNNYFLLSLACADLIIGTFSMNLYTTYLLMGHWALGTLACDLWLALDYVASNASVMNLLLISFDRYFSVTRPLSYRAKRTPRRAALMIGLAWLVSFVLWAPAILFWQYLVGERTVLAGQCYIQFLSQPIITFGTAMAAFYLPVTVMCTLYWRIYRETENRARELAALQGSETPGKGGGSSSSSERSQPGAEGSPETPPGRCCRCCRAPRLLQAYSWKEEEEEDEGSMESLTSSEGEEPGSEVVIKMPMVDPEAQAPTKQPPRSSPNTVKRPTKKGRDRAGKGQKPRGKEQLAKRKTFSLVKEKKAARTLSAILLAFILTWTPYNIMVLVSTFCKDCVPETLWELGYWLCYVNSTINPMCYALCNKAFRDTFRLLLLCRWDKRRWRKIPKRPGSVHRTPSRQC
Text: (§1) The compounds of Formula III incorporate hydrogen bonding elements as ester isosteres (i.e., alcohols, […], 1,2,5-thiadiazoles) at the end of an alkyl or alkyloxy linking group as shown below. The compounds lack a second tetrahydropyridine moiety.

[2] = molecular target: T2, M1 muscarinic receptors expressed in A9 L cells (Homo sapiens, UniProt P11229); test: Phosphoinositide (PI) metabolism at M1 muscarinic receptors expressed in A9 L cells; format: cell-based; conditions: for EC50 / Phosphoinositide metabolism Smax: A9 L cells, Table 3
T2 construct: expressed in transfected cells; host or cells: A9 L cells
T2 sequence (P11229 1-460): T1 sequence (P11229 1-460)
Text: as §1

For `CN1CCC=C(c2nsnc2OCCCCCCCCCCCCO)C1` [CDD-0297-A, 12-[3-(1-Methyl-1,2,5,6-tetrahydropyrid-3-yl)-1,2,5-thiadiazol-4-yloxy]-1-dodecanolhydrochloride], which Ki [1] is on record?
The Ki was 16 ± 3.1 nM.

And the EC50 [2]?
The EC50 was 2600 nM.

What about the “Phosphoinositide metabolism Smax” value [2] of the same molecule?
Its value is 250 ± 28%.

What does the source list for `COc1nsnc1OCCOCCOCCOCCOc1nsnc1C1=CCCN(C)C1` [CDD-0304-A, Tetra(ethyleneglycol)(4-methoxy-1,2,5-thiadiazol-3-yl)[3-(1-methyl-1,2,5,6-tetrahydropyrid-3-yl)-1,2,5-thiazdiazol-4-yl] ether hydrochloride]?
Ki [1]: 38 ± 23 nM; EC50 [2]: 64 nM; Phosphoinositide metabolism Smax [2]: 600 ± 56%

For `CC(=O)OCCOCCOCCOCCOc1nsnc1C1=CCCN(C)C1` (as salt: hydrochloride) [CDD-0303-A, Tetra(ethylene glycol) [3-(1-methyl-1,2,5,6-tetrahydropyrid-3-yl)-1,2,5-thiadiazol-4-yl] ether acetate hydrochloride], which melting point is on record?
Its melting point is 55 to 55.5 °C.

With `CCOCCOCCOCCOCCOc1nsnc1C1=CCCN(C)C1` (as salt: hydrochloride) [CDD-0301-A, Tetra(ethylene glycol) ethyl [3-1-methyl-1,2,5,6-tetrahydropyrid-3-yl)-1,2,5-thiadiazol-4-yl] ether hydrochloride] as the molecule, how does the melting point read?
Its melting point is 64.5 to 66 °C.

Which results are given for `CCOCCOCCOCCOCCOc1nsnc1C1=CCCN(C)C1` [CDD-0301-A, Tetra(ethylene glycol) ethyl [3-1-methyl-1,2,5,6-tetrahydropyrid-3-yl)-1,2,5-thiadiazol-4-yl] ether hydrochloride]?
Ki [1]: 570 ± 220 nM; EC50 [2]: 29000 nM; Phosphoinositide metabolism Smax [2]: 420 ± 220%

For `CC(=O)OCCOCCOCCOCCOc1nsnc1C1=CCCN(C)C1` [CDD-0303-A, Tetra(ethylene glycol) [3-(1-methyl-1,2,5,6-tetrahydropyrid-3-yl)-1,2,5-thiadiazol-4-yl] ether acetate hydrochloride], which Ki [1] is on record?
The Ki was 280 ± 130 nM.

Which “affinity for muscarinic receptors” value [1] does the source give for `CN1CCC=C(c2nsnc2OCCOCCOCCOCCOc2nsnc2C2=CCCN(C)C2)C1` [(CH2CH2)4O3, 2,2′-bis-{[3-(1-methyl-1,2,5,6-tetrahydropyrid-3-yl)-1,2,5-thiadiazol-4-yloxy]ethyloxy}-diethyl ether] here?
The value was “very high affinity”.

What about the Smax ([2]; PI metabolism, full dose-response curves, Table 2) of the same molecule?
Its Smax is 250 ± 36%.

With `CC(=O)OCCCCCCCCCCCCOc1nsnc1C1=CCCN(C)C1` (as salt: hydrochloride) [CDD-0299-A, 12-[3-(1-Methyl-1,2,5,6-tetrahydropyrid-3-yl)-1,2,5-thiadiazol-4-yloxy]-1-dodecyl acetate hydrochloride] as the molecule, how does the melting point read?
Its melting point is 85 to 86 °C.

What does the source list for `CN1CCC=C(c2nsnc2OCCOCCOCCOCCO)C1` [CDD-0300-A, Tetra(ethylene glycol) mono[3-(1-methyl-1,2,5,6-tetrahydropyrid-3-yl)-1,2,5-thiadiazol-4-yl] ether hydrochloride]?
Ki [1]: 150 ± 42 nM; EC50 [2]: 710 nM; Phosphoinositide metabolism Smax [2]: 240 ± 64%

Which “affinity for muscarinic receptors” value [1] does the source give for `CN1CCC=C(c2nsnc2OCCCCCCCCCCCCOc2nsnc2C2=CCCN(C)C2)C1` [(CH2)12, 1,12-bis-[3-(1-methyl-1,2,5,6-tetrahydropyrid-3-yl)-1,2,5-thiadiazol-4-yloxy]-dodecane] here?
The value was “very high affinity”.

Which results are given for `CC(=O)OCCCCCCCCCCCCOc1nsnc1C1=CCCN(C)C1` [CDD-0299-A, 12-[3-(1-Methyl-1,2,5,6-tetrahydropyrid-3-yl)-1,2,5-thiadiazol-4-yloxy]-1-dodecyl acetate hydrochloride]?
Ki [1]: 16 ± 13 nM; EC50 [2]: 3400 nM; Phosphoinositide metabolism Smax [2]: 280 ± 17%

For `CN1CCC=C(c2nsnc2OCCCCCCCCCCCCO)C1` (as salt: hydrochloride) [CDD-0297-A, 12-[3-(1-Methyl-1,2,5,6-tetrahydropyrid-3-yl)-1,2,5-thiadiazol-4-yloxy]-1-dodecanolhydrochloride], which melting point is on record?
Its melting point is 97 to 98 °C.
